# Experimental data reported in PubChem BioAssay AID1919006 (Molecular Pharmacology Branch, DTP, NCI, 2023).
# Where “and” joins values, the source holds several entries; their conditions need not be identical. Identical values can stand only once.
# Tested on: 885512-296-R-J2-PDC complex spheroid growth, % test/control
# Test: Anticancer human tumor 885512-296-R-J2-PDC patient-derived breast carcinoma cell line growth inhibition [AhR]
# Details: for viability, T/C: stronger effect = lower value
# Description: Multicellular complex tumor spheroid response to aryl hydrocarbon receptor antagonists in combination with a variety of drugs and investigational agents in selected tumor cell lines
# The current study was undertaken to assess response to aryl hydrocarbon receptor antagonists in combination with standard-of-care drugs and investigational agents in solid tumor complex spheroid models. Complex spheroids include a stromal component modeled by human endothelial cells (HUVEC) and fibroblasts modeled by human mesenchymal stem cells (MSCs). The concentration ranges selected for each drug and investigational agent were based upon clinically achievable concentrations if the clinical Cmax of the agent was known.
# Compounds. The drugs and investigational agents: BAY 2416964 (NSC825713), GNF351 (NSC835774), CH-223191 (NSC835775), CPI-455 (NSC825282), aza-TdCyd (NSC777586), decitabine (NSC127716), belinostat (NSC758774), entinostat (NSC756642), pevonedistat (NSC761192), tazemetostat (NSC777109), talazoparib (NSC765396), olaparib (NSC753686), selinexor (NSC780203), nedisertib (M3814, NSC802822), bortezomib (NSC756655), venetoclax (NSC766270), doxorubicin (NSC123127), elimusertib (BAY189344, NSC800525), ceralasertib (AZD6738, NSC777638), TAK-243 (NSC785004), alisertib (NSC759677), etoposide (NSC141540), topotecan (NSC609699), eribulin (NSC707389), gemcitabine (NSC613327), carboplatin (NSC241240), cisplatin (NSC119875), and SN-38 (NSC673596) were obtained from the National Cancer Institute (NCI) Developmental Therapeutics Program Chemical Repository (32). The FDA-approved anticancer drug set is available from the Developmental Therapeutics Program at https://dtp.cancer.gov/organization/dscb/obtaining/available plates.htm. […] The stock solutions were prepared in dimethyl sulfoxide (DMSO, Sigma-Aldrich, St. Louis, MO, cat. D2650), except for the platinum compounds which were prepared in saline (Quality Biological, Gaithersburg, MD, cat. 114-055-101), at 800-fold the tested concentration and stored at -70 degrees C prior to their use. All drugs and investigational agents were tested over a range starting from a high concentration at or near the clinical Cmax and decreasing in half-log increments. If the clinical Cmax for an agent had not been determined, the highest concentration tested was 10 microM (Table 1).
# Cell Culture. All cells were maintained in an incubator at 37 degrees C and 5% CO2 with 95% humidity. The PDC lines were cultured according to standard operating procedures established by the NCI PDMR (https://pdmr.cancer.gov). Briefly, all PDCs were thawed and cultured in Matrigel-coated flasks prepared with a working solution of 1X Ham's F-12 nutrient mix, without supplementation (Invitrogen, Waltham, MA, cat. 11765054), 100 U/mL penicillin-streptomycin (Invitrogen, cat. 15140122), and 2.5% Matrigel (Corning Inc., Corning, NY, cat. 354248) for the first three passages. All PDCs were cultured in complete DMEM/F-12 media containing advanced DMEM/F-12 (Invitrogen, cat. 12634028), 4.9% defined fetal bovine serum, heat inactivated (HyClone Laboratories Inc., Logan, UT, cat. SH30070.03HI), 389 ng/mL hydrocortisone (Sigma-Aldrich, cat. H4001), 9.7 ng/mL human EGF recombinant protein (Invitrogen, cat. PHG0313), 23.4 microg/mL adenine (Sigma-Aldrich, cat. A2786), 97.3 U/mL penicillin-streptomycin (Invitrogen, cat. 15140122), 1.9 mM L-glutamine (Invitrogen, cat. 25030081), and 9.7 microM Y-27632 dihydrochloride (Tocris Bioscience, Bristol, United Kingdom, cat. 1254). The PDCs were cultured in complete DMEM/F12 media without 10 microM Y-27632 dihydrochloride for at least two passages prior to the screen. The established cell lines NCI-H1341 and […] were cultured in DMEM/F-12, HEPES (Invitrogen, cat. 11330032), 5% defined fetal bovine serum (HyClone Laboratories Inc., cat. SH30070.03), ITS premix universal culture supplement [insulin (5 microg/mL), transferrin (5 microg/mL), and selenious acid (5 ng/mL)] […]
# 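Also: spheroids exposed to compounds for seven days.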
SMILES,IC50 (curve of compound),"viability, T/C (compound 0.0316 µM)","viability, T/C (compound 0.1 µM)","viability, T/C (compound 0.316 µM)","viability, T/C (compound 1 µM)","viability, T/C (compound 3.16 µM)","viability, T/C (compound 10 µM)",further results
COc1cccc2c1C(=O)c1c(O)c3c(c(O)c1C2=O)CC(O)(C(=O)CO)CC3OC1CC(N)C(O)C(C)O1 (stereo not given),< 31.6 nM,22.1% and 16.4% and 24.6%,20.5% and 11.7% and 14.2%,8.97% and 3.94% and 5.3%,0.67% and 0.49% and 0.27%,1.99% and 1.41% and 0.92%,1.58% and 1.1% and 0.8%,
Cc1ccccc1N=Nc1ccc(NC(=O)c2ccnn2C)c(C)c1,,,,,,,53.1% [middle of 21 runs],
Cc1cncc(-c2nc(NCCc3c[nH]c4ccccc34)c3ncn(C(C)C)c3n2)c1,,,105% [middle of 20 runs],,,60% [middle of 20 runs],19.6% [middle of 20 runs],"IC50 (compound alone, run of 08/16/2022): 4.14 µM [middle of 24 runs]"
Nc1ccn(C2OC(CO)C(O)C2(F)F)c(=O)n1 (stereo not given),< 31.6 nM,3% and 2.24% and 2.66%,3.22% and 2.41% and 2.65%,3.38% and 3.96% and 3.68%,3.04% and 4.06% and 3.38%,3.46% and 3.77% and 3.42%,3.08% and 3.9% and 2.46%,
Nc1ncn(C2CC(O)C(CO)O2)c(=O)n1 (stereo not given),670 nM and 776 nM and 697 nM,98.7% and 97.9% and 108%,82.1% and 86% and 107%,65.7% and 74.5% and 72%,41.9% and 42.8% and 39.9%,,,"viability, T/C (compound 0.00316 µM): 90.1% and 103% and 107%; viability, T/C (compound 0.01 µM): 89.7% and 93.7% and 117%"
Nc1ncn(C2CC(O)C(CO)S2)c(=O)n1 (stereo not given),129 nM and 160 nM and 239 nM,,,,,,,"viability, T/C (compound 0.000949 µM): 109% and 103% and 93%; viability, T/C (compound 0.003 µM): 93.6% and 108% and 103%; viability, T/C (compound 0.00949 µM): 96.9% and 120% and 104%; viability, T/C (compound 0.03 µM): 89.1% and 99.3% and 116%; viability, T/C (compound 0.0949 µM): 56.2% and 61.2% and 75.9%; viability, T/C (compound 0.3 µM): 31.1% and 37% and 43.6%"
O=C(c1cc(Cc2n[nH]c(=O)c3ccccc23)ccc1F)N1CCN(C(=O)C2CC2)CC1,8010 nM and 5700 nM and 6980 nM,101% and 131% and 106%,109% and 125% and 105%,133% and 134% and 148%,141% and 121% and 151%,113% and 81.3% and 93.8%,34.5% and 20.2% and 30.2%,

# Continued, in another order:
IC50 (curve of compound),SMILES,"viability, T/C (compound 0.0316 µM)","viability, T/C (compound 0.1 µM)","viability, T/C (compound 0.316 µM)","viability, T/C (compound 1 µM)","viability, T/C (compound 3.16 µM)","viability, T/C (compound 10 µM)",further results
> 100 nM,Cn1ncnc1C1c2n[nH]c(=O)c3cc(F)cc(c23)NC1c1ccc(F)cc1 (stereo not given),79.9% and 75.4% and 87.3%,58% and 57% and 53.9%,,,,,"viability, T/C (compound 0.000316 µM): 96.9% and 103% and 101%; viability, T/C (compound 0.001 µM): 88.9% and 93.1% and 107%; viability, T/C (compound 0.00316 µM): 90.6% and 91.2% and 108%; viability, T/C (compound 0.01 µM): 88.6% and 93.7% and 89%"
88.4 nM and 90.3 nM and 93 nM,NS(=O)(=O)OCC1CC(n2ccc3c(NC4CCc5ccccc54)ncnc32)CC1O (stereo not given),87% and 90.8% and 96.4%,45.5% and 46.1% and 46.9%,13.6% and 12.9% and 16%,6.2% and 6.25% and 7.3%,5.6% and 5% and 5.76%,4.67% and 3.65% and 5.16%,
920 nM and 758 nM and 747 nM,Nc1ccccc1NC(=O)c1ccc(CNC(=O)OCc2cccnc2)cc1,79.7% and 97% and 82.8%,86.1% and 81.5% and 74.1%,67.5% and 63.9% and 58.3%,48.1% (2×) and 46.7%,25.6% and 24.4% and 32.2%,10.4% and 10.3% (2×),
725 nM and 670 nM and 991 nM,O=C(C=Cc1cccc(S(=O)(=O)Nc2ccccc2)c1)NO,90.3% and 90% and 85.2%,86.3% and 84.5% and 83.5%,59.8% and 62.8% and 69.6%,45.6% and 39% and 44.7%,26.5% and 27.6% and 33.8%,10.4% and 6.72% and 10.9%,
75.3 nM and 68.3 nM and 67.1 nM,O=C(C=Cn1cnc(-c2cc(C(F)(F)F)cc(C(F)(F)F)c2)n1)NNc1cnccn1,,,,,,,"viability, T/C (compound 0.00949 µM): 95.6% and 113% and 96.3%; viability, T/C (compound 0.03 µM): 100% and 113% and 117%; viability, T/C (compound 0.0949 µM): 38% and 25% and 25.8%; viability, T/C (compound 0.3 µM): 5.56% and 4.15% and 4.46%; viability, T/C (compound 0.949 µM): 2.2% and 1.47% and 2.93%; viability, T/C (compound 3 µM): 1.21% and 0.91% and 1.13%"
